Values belong to the compound of their own block, whether it stands above or below them.
What was measured:
[1] = Linear curve fittings of the solubility points and stability areas from intersections of solubility curves; type: physicochemical; conditions: for solubility line s as function of temperature t (linear fitting): t in ° C., s = weight of lactitol/(weight of lactitol+weight of water)×100%, between 100 and 0 ° C.
Source text: The solubility data of Table 2 was combined with some earlier solubility measurement data. The curve fittings of the solubility points were made as linear fittings, when % by weight is used as a concentration unit. […] The fittings were made with the aid of the spread sheet program Excel 5.0^R. The solubility equations of the different hydrate forms are shown in Equations (I) to (IV): [formula]
The fitting of the trihydrate cannot be considered absolutely exact because only three measurement points were used for fitting: one exact point, one uncertain point and one calculatory point.
The solubility points and the curve fittings are shown in a graph in FIG. 1. […] From the intersections of solubility curves it is possible to conclude the stability areas of the different lactitol forms.

[2] = Solubility Test 1: equilibrium solubility of lactitol crystals in water; type: physicochemical
Procedure: The determination of the solubility and stability of lactitol crystals in water was made as follows:
The lactitol, which was used in the tests, was high grade lactitol monohydrate Lactitol MC (batch 21769) manufactured by Xyrofin OY, Finland according to EP Patent 0456636. This monohydrate was also used as seed crystals. When lactitol dihydrate was studied at 45° C. and 55 ° C., lactitol dihydrate produced at the applicant's research laboratory Dec. 20, 1994 (crystallization No. 3) was used both for solution and as seed crystals. […] The water, which was used, was distilled water.
At 35° C. the supersaturation was 10 g/100 g. […] The solutions were made by dissolving the monohydrate into water at a temperature above the solubility temperature. The solutions which were used at 65° C. and 75° C. were made by evaporating with a vacuum rotating flask evaporator. The concentrations were determined by refractometric indexes (RI). At the temperatures of 5° C., 10° C. and 15° C. the solutions were made in a 2-liter jacketed vessel. The other solutions were made in 200 ml or 250 ml measurement bottles.
When the lactitol had dissolved, the solution was cooled to the test temperature. The solution was seeded with softly crushed monohydrate crystals (2 tests with dihydrate crystals). In the measurement bottles the solutions were stirred with a magnetic stirrer and in the jacketed vessel with a motor driven mixer.
The crystallization of lactitol and the equilibration of the solution was monitored by measuring the refractometric index (RI) of the mother liquid. Before taking a sample, the crystals were allowed settle on the bottom of the vessel, so that the measurement of the RI would be as exact as possible. […] Thus, the RI of the mother liquid was measured from a suspension of crystals and solution. At the end point of the measurement the waiting time was so long that the mother liquid was clearly separated and after that the RI of the mother liquid was measured. The RIs were measured below 55° C. with an Index Instruments GPR-11-37 refractometer and above 55° C. with a Zeiβ refractometer, both of which were calibrated.
The equilibration of the solution was generally monitored for 7 . . . 14 days, but only for 3 days, when dihydrate was used as seed crystals. […] 150° C. and reading accuracy of 0.2° C. The accuracy of this thermometer was checked against a calibrated thermometer.
After the crystal suspension had reached equilibrium, the crystals were separated by centrifuging 15 min 5000 rpm using a thick cloth. One part of the crystals was dried at 60° C. in a drying cabinet over a night. The water contents of both undried and dried crystals were analyzed by the Karl Fischer method or by a coulometric Karl Fischer method. Furthermore, melting behaviors were analyzed.
The final solubilities at the studied temperatures are shown in Tables 2 and 3 in addition to the crystal forms. The crystal form was concluded from the water contents of the undried crystals and from the melting ranges. The water contents are shown in Tables 4 and 5 and melting behaviors in Table 6.

- solubility line s as function of temperature t (linear fitting) ([1]; dihydrate): 39.7+0.6332t
- Solubility ([2]; 10.2 ° C., lactitol monohydrate used as seed crystals): 45.7 g/100 g
- Solubility ([2]; 15.0 ° C., lactitol monohydrate used as seed crystals): 48.8 g/100 g
- Solubility ([2]; 25.6 ° C., lactitol monohydrate used as seed crystals): 56.3 g/100 g
- Solubility ([2]; 35.0 ° C., lactitol monohydrate used as seed crystals): 61.7 g/100 g
- Solubility ([2]; 45.0 ° C., lactitol dihydrate used as seed crystals): 69.1 g/100 g
SMILES: OC[C@@H](O)[C@@H](O[C@@H]1O[C@H](CO)[C@H](O)[C@H](O)[C@H]1O)[C@H](O)[C@@H](O)CO [dihydrate, lactitol dihydrate]

- solubility line s as function of temperature t (linear fitting) ([1]; monohydrate): 50.2+0.4346t
- Solubility ([2]; 54.7 ° C., lactitol dihydrate used as seed crystals): 73.4 g/100 g
- Solubility ([2]; 55.0 ° C., lactitol monohydrate used as seed crystals): 75.2 g/100 g
- Solubility ([2]; 65.0 ° C., lactitol monohydrate used as seed crystals): 79.6 g/100 g
SMILES: OC[C@@H](O)[C@@H](O[C@@H]1O[C@H](CO)[C@H](O)[C@H](O)[C@H]1O)[C@H](O)[C@@H](O)CO [monohydrate, lactitol monohydrate]

- stability area (temperature) ([1]; in water, from the intersections of solubility curves, trihydrate): < 12 °C
- solubility line s as function of temperature t (linear fitting) ([1]; trihydrate): 33.4+1.1482t
- Solubility ([2]; 5.1 ° C., lactitol monohydrate used as seed crystals): 42.3 g/100 g
SMILES: OC[C@@H](O)[C@@H](O[C@@H]1O[C@H](CO)[C@H](O)[C@H](O)[C@H]1O)[C@H](O)[C@@H](O)CO [trihydrate, lactitol trihydrate]

Source: US6407227B1, “Process for the crystallization of lactitol” (Xyrofin Oy, priority 1997, dated 2002)
